Reference: patent US20030176456A1, “Methods for reducing alcohol cravings in chronic alcoholics” (priority 2001, published 2003)
Like-named read-outs stand apart in the source and are kept apart here.

Legend:
P rats = assay: EtOH and sucrose responding after oral (gavage) administration; format: in vivo, rat; settings: for responding for sucrose: oral (gavage) 75 mg/kg; for EtOH responding / EtOH responding 24 hours after administration: oral (gavage); for EtOH responding: βCCt 15 & 30 mg/kg, 3-PBC 30-75 mg/kg, naltrexone 30-75 mg/kg; for EtOH responding 24 hours after administration: βCCt 15 & 75 mg/kg
Excerpt: In this study we compared the suppressant effect of βCCt and 3-PBC with naltrexone, a currently used alcohol antagonist on the market. As it is shown in FIG. 29A-B, orally administered βCCt can reduce alcohol responding, however, the effects are not dose related. In addition, 24 hr after administration of βCCt, it continues to reduce alcohol responding with selected doses. […] The suppressant effects of naltrexone in reducing alcohol responding are also dissipated 24 hr after the administration. […] Unlike naltrexone, the suppressant effects observed by βCCt and 3-PBC are selective for alcohol, and not reinforcers in general.

mice = settings: doses as high as 60 mg/kg (Griebel et al., 1999); cited from earlier work
α2β3γ2 GABAA receptor = biological target: T1, α2β3γ2 GABAA receptor (Homo sapiens, UniProt P18507+P47869); assay: Binding affinity at recombinant GABAA receptors (Ltk cells stably transfected)
T1 construct: expressed in transfected cells

selected rodent lines = assay: Plus-maze test in selected rodent lines; format: in vivo; settings: particularly at moderate to high doses (>7.5 mg/kg)
α6β3γ2 GABAA receptor = biological target: T2, α6β3γ2 GABAA receptor (Homo sapiens, UniProt P18507+Q16445); assay: Binding affinity at recombinant GABAA receptors (Ltk cells stably transfected); settings: recombinant αxβ3γ2; read-out: Ki α6
T2 construct: expressed in transfected cells

α3β3γ2 GABAA receptor = biological target: T3, α3β3γ2 GABAA receptor (Homo sapiens, UniProt P18507+P34903); assay: as above
T3 construct: expressed in transfected cells

GABAA α3β3γ2 receptors = assay: Xenopus oocyte expression assay, modulation of GABA current; format: cell-based, rat; settings: saturating 1-10 μM modulator with EC50 GABA (30 μM); mean±S.D.
[1] = system: alcohol-preferring (P) rats; assay: Operant self-administration, concurrent FR4 schedule for EtOH and saccharin; format: in vivo, rat; settings: for EtOH-maintained responding / saccharin-maintained responding: bilateral infusion 5-40 μg in NACC/caudate putamen (neuroanatomical control)
Procedure: Behavioral testing was conducted in 15 standard operant chambers (Coulbourn Instruments) equipped with two removable levers and two dipper fluid delivery systems enclosed in sound-attenuated cubicles as previously described (June et al., 1998a,b). A concurrent fixed-ratio schedule was employed to investigate the capacity of systemic and direct microinjections of 3-PBC in the CNS to modify EtOH and saccharin-maintained responding. The specific details of these procedures have recently been described (June et al., 1998; 1999; 2001). In brief, rats were initially trained to orally self-administer EtOH and water in daily 60 min sessions on a concurrent FRI schedule in a two-lever choice situation. After a period of stabilization on the FRI schedule, the response requirement was increased to a concurrent FR4 schedule and the water reinforcer was replaced with saccharin (0.025-0.05% w/v). The importance of alternative and concurrently presented reinforcers in examining the positive reinforcing properties of drugs of abuse has been discussed previously (Meisch and Lemaire, 1993; June et al., 2001; June in press).
3-PBC was administered 15 min before the operant session to allow for optimal absorption and CNS distribution. […] The duration of the operant sessions was 60 min, however, subjects were tested at 24 and 48 hour post drug administration to determine any residual drug effects. A minimum of 72-96 hours were allocated between drug treatments to permit animals to return to baseline levels. This period prevented confounding of drug treatments due to residual effects (for details see June et al., 1998b).
Guide cannulas were stereotaxically implanted bilaterally in the anterior (AP +0.48; ML ±1.6; DV −7.2, with 6° lateral angle) (n=8) and medial (AP −0.26; ML ±2.5; DV −7.0) (n=6) VP. The neuroanatomical control rats were bilaterally implanted in either the caudate putamen or NACC. The coordinates for the caudate putamen were AP +1.5; ML ±2.5; DV 4.2 (n=3). In the NACC group some rats were implanted in the shell [AP +1.4; ML +0.8; DV −6.0] (n=3) while others were implanted in the core [AP +1.4; ML ±1.7; DV −5.71] (n=3). All coordinates are given in millimeters relative to Bregma based on the Paxinos and Watson (1998) atlas. Subjects were given 7 days to recover from surgery before returning to training in the operant chamber. The 3-PBC infusions were delivered immediately before the operant session with a Harvard infusion pump in aCSF (composition in mM: NaCl, 120; KCl, 4.8; KH2PO4, 1.2; MgSO4, 1.2; NaHCO3, 25; CaCl2, 2.5; d-glucose, 10) as previously described (for details see June et al., 2001).
Statistical Analysis The operant maintained responding data were analyzed by a single factor repeated measures ANOVA with drug treatment (i.e., dose) as the independent factor. The dependent variables were EtOH and saccharin-maintained responding. Each dependent variable was analyzed separately. Post-hoc comparisons between individual drug treatments were made using the Newman Keuls Test in all experiments. In systemic studies, drug treatment comparisons were made against the no injection (e.g., baseline=BL) and Tween-20 vehicle control conditions. In the microinjection studies, drug treatment comparisons were made against the no injection control condition (e.g., baseline=BL) and aCSF control condition. All microinjection data were obtained and analyzed following correct histological verification under a light microscope. To determine the time course of antagonism across the 60 min session, a single factor ANOVA was conducted at each of the six-10 min intervals on the cumulative response data for the respective drug treatment conditions relative to the pooled controlled conditions. EtOH and saccharin maintained responding data were analyzed separately. Post-hoc analyses were performed on the cumulative interval data using the least significant difference (LSD) test. […]

α1β3γ2 GABAA receptor = biological target: T4, α1β3γ2 GABAA receptor (Homo sapiens, UniProt P14867+P18507); assay: Binding affinity at recombinant GABAA receptors (Ltk cells stably transfected)
T4 construct: expressed in transfected cells

α5β3γ2 GABAA receptor = biological target: T5, α5β3γ2 GABAA receptor (Homo sapiens, UniProt P18507+P31644); assay: as above
T5 construct: expressed in transfected cells

squirrel monkeys = settings: Rowlett et al., unpublished observation; cited from earlier work
GABAA α2β3γ2 receptors = assay: Xenopus oocyte expression assay, modulation of GABA current; format: cell-based, rat; settings: saturating 1-10 μM modulator with EC50 GABA (50 μM); mean±S.D.
[2] = bilateral infusion in ventral pallidum (VP), 3-PBC 0.5-40 μg, βCCt 5-40 μg
[3] = i.p. 15 min before 60 min session, 3-PBC 1-20 mg/kg, βCCt 5-40 mg/kg
[4] = i.p., 3-PBC 1-10 mg/kg, βCCt 5-40 mg/kg

T4 sequence (P14867 28-456): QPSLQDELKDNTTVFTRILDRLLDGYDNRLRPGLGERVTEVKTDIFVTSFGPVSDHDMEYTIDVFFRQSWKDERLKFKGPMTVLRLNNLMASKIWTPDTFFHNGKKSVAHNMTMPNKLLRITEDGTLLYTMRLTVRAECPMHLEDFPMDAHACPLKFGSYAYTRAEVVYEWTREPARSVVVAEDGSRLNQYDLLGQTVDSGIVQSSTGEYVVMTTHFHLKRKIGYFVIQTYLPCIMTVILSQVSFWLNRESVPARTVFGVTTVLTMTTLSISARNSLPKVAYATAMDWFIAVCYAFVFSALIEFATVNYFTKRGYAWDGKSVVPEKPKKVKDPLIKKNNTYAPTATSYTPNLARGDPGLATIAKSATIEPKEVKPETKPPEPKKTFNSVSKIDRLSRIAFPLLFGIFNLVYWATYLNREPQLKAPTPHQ
T4 sequence (P28472 26-473 partner): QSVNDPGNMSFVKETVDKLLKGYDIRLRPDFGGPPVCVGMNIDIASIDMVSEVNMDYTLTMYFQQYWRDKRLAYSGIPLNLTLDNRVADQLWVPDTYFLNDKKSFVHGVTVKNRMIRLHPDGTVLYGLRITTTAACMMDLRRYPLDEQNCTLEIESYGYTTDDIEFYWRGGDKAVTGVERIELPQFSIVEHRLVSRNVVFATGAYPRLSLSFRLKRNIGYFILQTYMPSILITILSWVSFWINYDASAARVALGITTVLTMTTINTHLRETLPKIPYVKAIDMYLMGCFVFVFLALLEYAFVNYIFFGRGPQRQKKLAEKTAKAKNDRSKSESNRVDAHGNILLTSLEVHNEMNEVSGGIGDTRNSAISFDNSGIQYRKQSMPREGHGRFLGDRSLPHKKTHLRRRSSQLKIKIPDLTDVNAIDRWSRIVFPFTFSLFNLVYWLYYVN
T4 sequence (P18507 40-475): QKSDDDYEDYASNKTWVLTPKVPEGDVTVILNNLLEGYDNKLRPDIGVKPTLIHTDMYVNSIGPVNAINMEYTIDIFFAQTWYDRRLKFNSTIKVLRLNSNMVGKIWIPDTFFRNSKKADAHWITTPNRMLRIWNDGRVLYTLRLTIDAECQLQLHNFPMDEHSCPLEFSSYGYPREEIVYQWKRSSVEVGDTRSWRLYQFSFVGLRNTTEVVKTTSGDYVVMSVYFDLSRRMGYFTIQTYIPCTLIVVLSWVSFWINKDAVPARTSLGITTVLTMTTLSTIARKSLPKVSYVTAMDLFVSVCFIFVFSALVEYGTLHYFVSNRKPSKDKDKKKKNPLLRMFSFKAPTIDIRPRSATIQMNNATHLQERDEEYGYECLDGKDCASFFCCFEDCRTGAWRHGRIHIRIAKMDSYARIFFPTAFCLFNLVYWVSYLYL
T5 sequence (P31644 32-462): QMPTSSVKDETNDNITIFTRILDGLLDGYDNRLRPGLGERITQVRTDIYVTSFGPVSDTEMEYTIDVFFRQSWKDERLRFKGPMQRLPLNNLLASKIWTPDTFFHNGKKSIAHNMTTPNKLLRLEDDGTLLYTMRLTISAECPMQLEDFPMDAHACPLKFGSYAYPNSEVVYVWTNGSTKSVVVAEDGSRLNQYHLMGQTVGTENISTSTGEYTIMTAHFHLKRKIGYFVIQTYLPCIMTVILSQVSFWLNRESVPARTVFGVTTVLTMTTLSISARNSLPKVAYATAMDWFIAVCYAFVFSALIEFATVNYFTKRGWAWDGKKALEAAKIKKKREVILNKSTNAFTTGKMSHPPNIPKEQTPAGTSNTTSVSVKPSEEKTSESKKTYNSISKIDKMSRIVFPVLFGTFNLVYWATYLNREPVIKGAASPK
T5 sequence (P28472 26-473 partner): as the sequence (P28472 26-473 partner) above
T5 sequence (P18507 40-475): as the sequence (P18507 40-475) above
T2 sequence (Q16445 20-453): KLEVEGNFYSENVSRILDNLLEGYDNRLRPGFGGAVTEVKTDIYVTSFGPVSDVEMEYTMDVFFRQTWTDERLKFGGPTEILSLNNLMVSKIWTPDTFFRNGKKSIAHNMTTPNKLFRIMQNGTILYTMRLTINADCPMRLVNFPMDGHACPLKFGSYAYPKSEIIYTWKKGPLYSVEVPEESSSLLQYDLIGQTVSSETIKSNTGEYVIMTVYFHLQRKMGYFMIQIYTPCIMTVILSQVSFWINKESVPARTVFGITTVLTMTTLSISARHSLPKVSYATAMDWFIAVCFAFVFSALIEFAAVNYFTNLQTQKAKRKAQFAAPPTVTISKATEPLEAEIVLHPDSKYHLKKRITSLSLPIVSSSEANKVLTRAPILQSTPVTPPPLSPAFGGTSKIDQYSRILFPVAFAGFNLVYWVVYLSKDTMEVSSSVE
T2 sequence (P28472 26-473 partner): as the sequence (P28472 26-473 partner) above
T2 sequence (P18507 40-475): as the sequence (P18507 40-475) above
T1 sequence (P47869 29-451): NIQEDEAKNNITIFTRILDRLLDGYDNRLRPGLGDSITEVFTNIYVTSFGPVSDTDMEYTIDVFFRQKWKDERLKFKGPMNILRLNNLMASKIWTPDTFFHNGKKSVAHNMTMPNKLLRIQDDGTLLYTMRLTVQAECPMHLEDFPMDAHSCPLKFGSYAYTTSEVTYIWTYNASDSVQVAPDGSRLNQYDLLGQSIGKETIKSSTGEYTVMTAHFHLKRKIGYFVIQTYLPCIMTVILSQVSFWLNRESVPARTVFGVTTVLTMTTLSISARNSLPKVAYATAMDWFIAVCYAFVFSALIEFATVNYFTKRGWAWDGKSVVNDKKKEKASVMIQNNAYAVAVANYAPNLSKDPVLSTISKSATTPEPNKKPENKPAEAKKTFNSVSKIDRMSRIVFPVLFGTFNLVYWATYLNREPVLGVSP
T1 sequence (P28472 26-473 partner): as the sequence (P28472 26-473 partner) above
T1 sequence (P18507 40-475): as the sequence (P18507 40-475) above
T3 sequence (P34903 29-492): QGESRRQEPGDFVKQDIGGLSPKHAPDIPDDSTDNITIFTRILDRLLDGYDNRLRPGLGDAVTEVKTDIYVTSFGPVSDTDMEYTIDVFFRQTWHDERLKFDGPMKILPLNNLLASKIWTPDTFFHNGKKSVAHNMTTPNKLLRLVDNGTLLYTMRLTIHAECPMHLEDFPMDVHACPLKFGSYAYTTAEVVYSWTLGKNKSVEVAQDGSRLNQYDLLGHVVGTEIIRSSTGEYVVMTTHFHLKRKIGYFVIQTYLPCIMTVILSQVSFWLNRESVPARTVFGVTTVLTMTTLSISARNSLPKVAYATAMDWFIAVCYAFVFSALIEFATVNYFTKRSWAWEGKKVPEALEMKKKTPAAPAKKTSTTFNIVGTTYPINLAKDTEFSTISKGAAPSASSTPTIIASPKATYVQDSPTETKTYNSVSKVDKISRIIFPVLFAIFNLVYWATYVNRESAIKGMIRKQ
T3 sequence (P28472 26-473 partner): as the sequence (P28472 26-473 partner) above
T3 sequence (P18507 40-475): as the sequence (P18507 40-475) above

Row | SMILES | responding for sucrose (P rats) | EtOH responding (P rats) | EtOH responding 24 hours after administration (P rats) | anxiolytic effects in the plus-maze test (selected rodent lines) | Ki (α6β3γ2 GABAA receptor) | % of GABA response, α3 (GABAA α3β3γ2 receptors) | EtOH-maintained responding [1] | saccharin-maintained responding [1] | saccharin-maintained responding, total session ([1]; bilateral infusion in VP) | EtOH-maintained responding, total session [1, 2] | EtOH-maintained responding, total session [1, 3] | saccharin-maintained responding, total session [1, 4] | other results
1 | CC(C)(C)OC(=O)c1cc2c(cn1)[nH]c1ccccc12 [βCCt, β-carboline-3-carboxylate t-butyl ester] | fails to alter responding for sucrose | significantly reduces EtOH responding | significantly reduce EtOH responding | capable of producing anxiolytic effects | > 1 µM | 108±6% | none of the βCCt treatments altered | none of the βCCt treatments altered | did not alter | dose-dependently reduced | all doses significantly suppressed | without effect | intrinsic activity in the open field (mice): failed to produce intrinsic activity; Ki (α2β3γ2 GABAA receptor): 0.015 µM; Ki (α3β3γ2 GABAA receptor): 0.0189 µM; suppression of EtOH responding 24 hr post-drug ([1]; i.p. 40 mg/kg, 24 hr post-drug administration): 76 % of control levels; Ki (α1β3γ2 GABAA receptor): 0.00072 µM; fold more selective than flumazenil at α1 sites (α1β3γ2 GABAA receptor; binding selectivity): over 20 fold; fold more selective than zolpidem at α1 sites (α1β3γ2 GABAA receptor; binding selectivity): 3.5 fold; Ki (α5β3γ2 GABAA receptor): 0.111 µM
2 | CCCOc1cc2c(cn1)[nH]c1ccccc12.Cl [3-PBC, 3-Propoxy-β-carboline hydrochloride] | fails to alter responding for sucrose | dose-dependently reduces EtOH responding | dissipated | capable of producing anxiolytic effects | > 1 µM | 119±6% | without effect | without effect | only the 40 μg dose significantly reduced saccharin responding | dose-dependently reduced | significant dose-related reduction | significant elevation | activity in observational studies vs saline controls (squirrel monkeys): inactive; Ki (α2β3γ2 GABAA receptor; recombinant αxβ3γ2, read-out: Ki α2): 0.0523 µM; Ki (α3β3γ2 GABAA receptor; recombinant αxβ3γ2, read-out: Ki α3): 0.0688 µM; cumulative within session alcohol responding ([1]; VP infusion, initial 10 and 20 min intervals): significant reduction; saccharin-maintained responding, total session ([1]; i.p. 20 mg/kg): significantly suppressed; cumulative within session EtOH responding ([1]; i.p., first 10, 20 and 30 min intervals): suppressed the initiation of EtOH responding; selectivity for α1 relative to α2 (α1β3γ2 GABAA receptor; binding selectivity): 9.8 fold; selectivity for α1 relative to α3 (α1β3γ2 GABAA receptor; binding selectivity): 13 fold; selectivity for α1 relative to α5 (α1β3γ2 GABAA receptor; binding selectivity): 111 fold; Ki (α1β3γ2 GABAA receptor; recombinant αxβ3γ2, read-out: Ki α1): 0.0053 µM; % of GABA response, α2 (GABAA α2β3γ2 receptors): 116±7%; Ki (α5β3γ2 GABAA receptor; recombinant αxβ3γ2, read-out: Ki α5): 0.591 µM
